Results on 1 compound are retold here after patent US9616006B2, “Methods and compositions for treating dermatological diseases and conditions” (priority 2007, dated 2017).

Test [1] relates to IL-8. As to the kind of experiment: UV-induced IL-8 production in keratinocytes (ELISA). The test is classed as cell-based, human. Particulars: Homo sapiens, Keratinocyte, read-out: Percent Inhibition of IL-8. On the procedure: In one study, various concentrations of DHE were added to culture medium and these media were placed on human fibroblast cell cultures (results shown in FIG. 1). Cells were either not induced or induced with UVB radiation to stimulate cytokine/PGE-2 production. At 24 hours after treatment, the cell culture medium was removed and assayed by ELISA methods for the expression of PGE-2, various cytokines and chemokines.
When similar experiments were carried out with human keratinocytes, DHE was again found to markedly suppress the UVR induction of PGE-2, with a concentration of 50 uM inhibiting the production of PGE-2 by over 60% (results shown in FIG. 2). […] Further, since PGE-2 is known to be a principal factor in the development of actinic keratosis and skin cancer, DHE can also be used in treating these conditions.
DHE and IE both have inhibitory effects on production of the inflammatory mediators in keratinocytes.
(In general: In an ELISA, binding on a coated surface is turned into a signal by an enzyme label.)

The subject of test [2] is PGE2. As to the kind of experiment: TPA-induced PGE2 production in keratinocytes (ELISA). The test is classed as cell-based, human. As to conditions: Homo sapiens, Keratinocyte, read-out: Percent Inhibition of PGE2.
The subject of test [3] is human melanocyte cultures. As to the kind of experiment: Pigment in human melanocyte cultures. Particulars: treated for 9 days. The class given is cell-based.
In test [4] the test system is TIMP-1. As to the kind of experiment: TIMP-1 mRNA in fibroblasts by PCR. The test is classed as cell-based, human. From the text:
The presently claimed and disclosed inventive concept(s) further contemplates use of various DHE, IE and EV compositions and salts, esters, ethers, and derivatives thereof to mitigate the effects of aging on the skin. For all aging studies, normal human fibroblast cell cultures were used. These cells normally produce collagen, elastin and hyaluronic acid. As the skin ages, the fibroblasts in the dermis lose their ability to produce these three key components of skin, and the skin consequently loses elasticity, thickness and smooth texture. In addition, as fibroblasts age, they increase the expression of certain enzymes that destroy collagen and elastin. There are about 13 of these enzymes, collectively referred to as MMPs (matrix metalloproteinases). One of the principal MMPs, MMP-1, is responsible for collagen degradation. For experiments herein to determine the effects of DHE, IE and EV on collagen, elastin and hyaluronic acid, fibroblasts were treated with the compounds for 72 hours, mRNA was then isolated, and analyzed for abundance by RT-PCR (Reverse transcriptase-Polymerase Chain Reaction).
Fibroblasts in the skin not only produce enzymes (MMPs) that destroy the skin matrix but they also produce proteins (Tissue Inhibitors of Metalloproteinases, i.e., TIMPS) that inhibit these enzymes. There are several TIMPs, but one that is most important for inhibiting MMPs is TIMP-1. […] Shown in FIG. 11 is PCR data showing the up-regulation of TIMP-1 mRNA by these compounds.

Test [5] has as its system IL-8. As to the kind of experiment: TNF-α-induced IL-8 production in monocytes. As to conditions: Monocyte, read-out: Percent Inhibition of IL-8. The class given is cell-based. From the text: (§1) DHE and IE both have inhibitory effects on the production of the inflammatory mediators in monocytes.
Test [6] relates to TNF-α. As to the kind of experiment: LPS-induced TNF-α production in monocytes. The class given is cell-based. As to conditions: Monocyte; Monocytes (LPS); 100 uM; read-out: Percent Inhibition of TNF-α.
From the text: as §1

As usually defined, the inhibition is the change of the read-out against control, counted positive when it falls. In the case of `CC=Cc1ccc(O)c(OC)c1` [IE, isoeugenol], the inhibition at 100 µM in test [1] came to 76%; in test [2], 82%; in test [5] it was 78%; in test [6], 80%. In addition, in test [3], the “pigment in human melanocyte cultures” value is recorded as “loss of pigment”. In test [4], the “production of TIMP-1 (TIMP-1 mRNA)” value was “significantly stimulate”.
